# Measurements taken from patent US7034036B2, “Inhibitors of ABC drug transporters at the blood-brain barrier” (Pain Therapeutics, Inc., priority 2000, dated 2006).
# “Also recorded” adds a separate entry of the source.
# Key:
# mice [1] = test: Tail flick anti-nociception, naltrexone given with morphine from day 1 (Groups C, D, combined analysis); assay type: in vivo; set-up: Enhancement of Latency (tail flick) / Enhancement of Latency by Naltrexone (tail flick): unit not given here
# Procedure: In a third series of experiments, 40 male mice were randomized into 5 groups of eight. All mice were administered single 3 mg/kg morphine daily (b.i.d.), beginning on Day 1.
# In a final series of experiments, 40 female mice were randomized into 5 groups of eight. All mice were administered single 3 mg/kg morphine daily (b.i.d.), beginning on Day 1.
# mice [2] = test: Tail flick anti-nociception, naltrexone begun at day 6 in mice dosed daily with morphine (Groups A, B); assay type: in vivo; details: morphine 3 mg/kg daily
# Procedure: 40 male mice were randomized into 5 groups of eight. All mice were administered single 3 mg/kg morphine daily (b.i.d.), beginning on Day 1.
# In a second series of experiments, 40 female mice were randomized into 5 groups of eight. All mice were administered single 3 mg/kg morphine daily (b.i.d.), beginning on Day 1.
# 3 mg/kg of morphine was administered as a single bolus dose to each mouse on group 1 on a daily basis. Mice in Group 2 were also administered 3 mg/kg morphine daily.
structure (smiles),measurement,setting,value
"O=C1CC[C@@]2(O)[C@H]3Cc4ccc(O)c5c4[C@@]2(CCN3CC2CC2)[C@H]1O5 [Naltrexone, naltrexone]",Enhancement of Latency by Naltrexone (tail flick),"mice [1]; female mice, Group 4: morphine 3 mg/kg + naltrexone 300 ng/kg b.i.d. from day 1, Day 7",0.2
same,Enhancement of Latency by Naltrexone (tail flick),"mice [1]; female mice, Group 4: morphine 3 mg/kg + naltrexone 300 ng/kg b.i.d. from day 1, Day 10",5.9
same,Enhancement of Latency by Naltrexone (tail flick),"mice [1]; female mice, Group 4: morphine 3 mg/kg + naltrexone 300 ng/kg b.i.d. from day 1, Day 11, single bolus 10 μg/kg naltrexone in addition",0.8
same,Enhancement of Latency by Naltrexone (tail flick),"mice [1]; female mice, Group 5: morphine 3 mg/kg + naltrexone 3000 ng/kg b.i.d. from day 1, Day 1",12.3
same,Enhancement of Latency by Naltrexone (tail flick),"mice [1]; female mice, Group 5: morphine 3 mg/kg + naltrexone 3000 ng/kg b.i.d. from day 1, Day 3",9.6
same,Enhancement of Latency by Naltrexone (tail flick),"mice [1]; female mice, Group 5: morphine 3 mg/kg + naltrexone 3000 ng/kg b.i.d. from day 1, Day 5",3.4
same,Enhancement of Latency by Naltrexone (tail flick),"mice [1]; female mice, Group 5: morphine 3 mg/kg + naltrexone 3000 ng/kg b.i.d. from day 1, Day 7",1.9
same,Enhancement of Latency by Naltrexone (tail flick),"mice [1]; female mice, Group 5: morphine 3 mg/kg + naltrexone 3000 ng/kg b.i.d. from day 1, Day 10",6.7
same,Enhancement of Latency by Naltrexone (tail flick),"mice [1]; female mice, Group 5: morphine 3 mg/kg + naltrexone 3000 ng/kg b.i.d. from day 1, Day 11, single bolus 10 μg/kg naltrexone in addition",−0.7
same,Latency versus other doses,"mice [1]; female mice, dose 0.3 ng/kg as printed, not significantly different from 0.03 or 3 ng/kg",gave the longest latency
same,Latency versus other concentrations,"mice [1]; male mice, Groups A and C combined, days 8 and 10, naltrexone at 300 ng",gave the greatest latency
same,Enhancement of Latency by Naltrexone (tail flick),"mice [1]; male mice, Group 2: morphine 3 mg/kg + naltrexone 3 ng/kg b.i.d. from day 1, Day 1",13.3
same,Enhancement of Latency by Naltrexone (tail flick),"mice [1]; male mice, Group 2: morphine 3 mg/kg + naltrexone 3 ng/kg b.i.d. from day 1, Day 3",7.5
same,Enhancement of Latency by Naltrexone (tail flick),"mice [1]; male mice, Group 2: morphine 3 mg/kg + naltrexone 3 ng/kg b.i.d. from day 1, Day 5",4.5
same,Enhancement of Latency by Naltrexone (tail flick),"mice [1]; male mice, Group 2: morphine 3 mg/kg + naltrexone 3 ng/kg b.i.d. from day 1, Day 8",5.5
same,Enhancement of Latency by Naltrexone (tail flick),"mice [1]; male mice, Group 2: morphine 3 mg/kg + naltrexone 3 ng/kg b.i.d. from day 1, Day 10",2.7
same,Enhancement of Latency by Naltrexone (tail flick),"mice [1]; male mice, Group 2: morphine 3 mg/kg + naltrexone 3 ng/kg b.i.d. from day 1, Day 12, single bolus 10 μg/kg naltrexone to every mouse",1.1
same,Enhancement of Latency by Naltrexone (tail flick),"mice [1]; male mice, Group 3: morphine 3 mg/kg + naltrexone 30 ng/kg b.i.d. from day 1, Day 1",12.4
same,Enhancement of Latency by Naltrexone (tail flick),"mice [1]; male mice, Group 3: morphine 3 mg/kg + naltrexone 30 ng/kg b.i.d. from day 1, Day 3",9.3
same,Enhancement of Latency by Naltrexone (tail flick),"mice [1]; male mice, Group 3: morphine 3 mg/kg + naltrexone 30 ng/kg b.i.d. from day 1, Day 5",7.5
same,Enhancement of Latency by Naltrexone (tail flick),"mice [1]; male mice, Group 3: morphine 3 mg/kg + naltrexone 30 ng/kg b.i.d. from day 1, Day 8",7.1
same,Enhancement of Latency by Naltrexone (tail flick),"mice [1]; male mice, Group 3: morphine 3 mg/kg + naltrexone 30 ng/kg b.i.d. from day 1, Day 10",3.2
same,Enhancement of Latency by Naltrexone (tail flick),"mice [1]; male mice, Group 3: morphine 3 mg/kg + naltrexone 30 ng/kg b.i.d. from day 1, Day 12, single bolus 10 μg/kg naltrexone to every mouse",−0.8
same,Enhancement of Latency by Naltrexone (tail flick),"mice [1]; male mice, Group 4: morphine 3 mg/kg + naltrexone 300 ng/kg b.i.d. from day 1, Day 1",16.3
same,Enhancement of Latency by Naltrexone (tail flick),"mice [1]; male mice, Group 4: morphine 3 mg/kg + naltrexone 300 ng/kg b.i.d. from day 1, Day 3",17.1
same,Enhancement of Latency by Naltrexone (tail flick),"mice [1]; male mice, Group 4: morphine 3 mg/kg + naltrexone 300 ng/kg b.i.d. from day 1, Day 5",11.8
same,Enhancement of Latency by Naltrexone (tail flick),"mice [1]; male mice, Group 4: morphine 3 mg/kg + naltrexone 300 ng/kg b.i.d. from day 1, Day 8",9.4
same,Enhancement of Latency by Naltrexone (tail flick),"mice [1]; male mice, Group 4: morphine 3 mg/kg + naltrexone 300 ng/kg b.i.d. from day 1, Day 10",6.1
same,Enhancement of Latency by Naltrexone (tail flick),"mice [1]; male mice, Group 4: morphine 3 mg/kg + naltrexone 300 ng/kg b.i.d. from day 1, Day 12, single bolus 10 μg/kg naltrexone to every mouse",−0.2
same,Enhancement of Latency by Naltrexone (tail flick),"mice [1]; male mice, Group 5: morphine 3 mg/kg + naltrexone 3000 ng/kg b.i.d. from day 1, Day 1",13.5
same,Enhancement of Latency by Naltrexone (tail flick),"mice [1]; male mice, Group 5: morphine 3 mg/kg + naltrexone 3000 ng/kg b.i.d. from day 1, Day 3",13.0
same,Enhancement of Latency by Naltrexone (tail flick),"mice [1]; male mice, Group 5: morphine 3 mg/kg + naltrexone 3000 ng/kg b.i.d. from day 1, Day 5",12.0
same,Enhancement of Latency by Naltrexone (tail flick),"mice [1]; male mice, Group 5: morphine 3 mg/kg + naltrexone 3000 ng/kg b.i.d. from day 1, Day 8",10.4
same,Enhancement of Latency by Naltrexone (tail flick),"mice [1]; male mice, Group 5: morphine 3 mg/kg + naltrexone 3000 ng/kg b.i.d. from day 1, Day 10",7.4
same,Enhancement of Latency by Naltrexone (tail flick),"mice [1]; male mice, Group 5: morphine 3 mg/kg + naltrexone 3000 ng/kg b.i.d. from day 1, Day 12, single bolus 10 μg/kg naltrexone to every mouse",−0.7
same,Enhancement of latency versus other concentrations,"mice [1]; male mice, naltrexone at 300 ng with morphine 3 mg/kg from day 1, Days 1, 3, 5, 8, 10",significantly greater
same,Latency versus other concentrations,"mice [1]; males and females combined, naltrexone 30 ng/kg and 300 ng/kg, days 1, 3, 5, 6, 8, 10",significantly longer latency
same,Development of tolerance to morphine,mice [1]; naltrexone in combination with morphine,prevents the mice from developing a tolerance to morphine
same,Naltrexone effect on tail flick latency,"mice [2]; female mice, naltrexone 3-3000 ng/kg b.i.d. from day 6, Days 6, 8, 10",significantly different from zero in enhancing latency
same,Effect on morphine tolerance,"mice [2]; morphine-tolerant mice, naltrexone 3 ng/kg daily from Day 6",broke the tolerance; also recorded: breaks tolerance
